The results in this text go back to patent US20250223301A1, “KINASE INHIBITORS, PREPARATION METHODS AND USES THEREOF” (InventisBio Co., Ltd., priority 2022, published 2025).

For one test, the system named is PBMC. Nature of the test: Human PBMC IL-2 assay. The test is classed as cell-based. The conditions noted are these: anti-CD3/CD28 stimulation overnight, IL-2 level. As to the method: PBMC (frozen) obtained from health donor were thawed in RPMI-1640 medium with 10% FBS and incubated for 4 h at 37° C. In a 96-well plate, −200,000 PBMC cells in 160 uL were added to each assay well. Ten microliter compound solution (10 uM to 0.6 nM, 8 points with 4-fold dilution) were added to cells in each well and incubated for 60 minutes at 37° C. Then 30 uL anti-CD3/CD28 antibody (Catalog #10991, Stemcell) were added to cells and incubated overnight at 37° C. After the incubation, 16 uL supernatants were transferred into a new 384-well white assay plate for cytokine analysis. IL-2 level was quantified using Human IL-2 kit (Catalog #62HIL02PEG, Cisbio) as described in the manufacturer manual.
(§1) X is log of compound concentration, Y is the IL-2 concentration, increasing as X increases.

In a further test the test system is Jurkat cells. Nature of the test: Jurkat IL-2 assay. It counts as cell-based. Conditions: Homo sapiens, anti-CD3/CD28 stimulation overnight, IL-2 level. As to the method: Jurkat cells (ATCC) were cultured in RPMI-1640 medium supplemented with 10% FBS. In a 96-well plate, −250,000 cells in 130 uL were added to each assay well. Ten microliter compound solution (5 uM to 2.3 nM, 8 points with 3-fold dilution) were added to cells in each well and incubated for 60 minutes at 37° C. Then 10 uL anti-CD3/CD28 antibody (Catalog #10991, Stemcell) were added and incubated overnight at 37° C. After the incubation, 16 uL supernatants were transferred into a new 384-well white assay plate for cytokine analysis. IL-2 was quantified using Human IL-2 kit (Catalog #62HIL02PEG, Cisbio) as described in the manufacturer manual.
as §1

For `CC[C@@H]1CN2c3c(c(=O)[nH]c4ccc(C#N)nc34)OC[C@@H]2CN1[C@@H](CC)c1ccc(C(F)(F)F)cc1` [Compound 252], the EC50 in the test on PBMC is 106 nM; with Jurkat cells it was 122 nM.

For `CC[C@@H]1CN2c3c(c(=O)n(CC)c4ccc(C#N)nc34)OC[C@@H]2CN1[C@@H](CC)c1ccc(C(F)(F)F)cc1` (stereo in doubt) [Compound 228], the concentration giving a half-maximal response (EC50) in the test with PBMC was found to be 227 nM; in the test with Jurkat cells, 87 nM.

With `CC[C@@H](c1ccc(C(F)(F)F)c(Cl)c1)N1C[C@H]2COc3c(c4nc(C#N)ccc4n(C)c3=O)N2C[C@H]1C` (stereo in doubt) [Compound 324], the EC50 with PBMC came out at 49 nM; in the test with Jurkat cells it was 95 nM.

Turning to `CC[C@@H]1CN2c3c(c(=O)n(C)c4ccc(C#N)nc34)OC[C@@H]2CN1[C@H](CC)c1ccc(C(F)(F)F)c(F)c1` (stereo in doubt) [Compound 320], the results for the EC50 in the test on PBMC and with Jurkat cells were 56 nM and 42 nM, respectively.

For the molecule `CCC[C@@H](c1ccc(C(F)(F)F)cc1)N1C[C@H]2COc3c(c4nc(C#N)ccc4n(C)c3=O)N2C[C@H]1CC` (stereo in doubt) [Compound 153], the concentration for a half-maximal effect (EC50) in the test on PBMC was 85 nM; in the test with Jurkat cells, 43 nM.

For the molecule `CC[C@H](c1ccc(C(F)(F)F)c(Cl)c1)N1C[C@H]2COc3c(c4nc(C#N)ccc4n(C)c3=O)N2C[C@H]1C` (stereo in doubt) [Compound 323], the EC50 in the test on PBMC is 474 nM; in the test on Jurkat cells, 364 nM.

In the case of `CC[C@H]1CN([C@H](c2ccc(SC(F)(F)F)cc2)C2CC2)[C@H](CC)CN1c1nc2nncn2c2ccc(C#N)nc12` (stereo in doubt) [Compound 168], the EC50 in the test with PBMC is 32 nM; with Jurkat cells, 42 nM.

As to `CC[C@@H]1CN2c3c(c(=O)n(C)c4ccc(C#N)nc34)OC[C@@H]2CN1[C@@H](CC)c1ccc(C)c(F)c1` (stereo in doubt) [Compound 339], the values for the concentration giving a half-maximal response (EC50) with PBMC and with Jurkat cells were 13 nM and 7 nM, respectively.

As for `CC[C@@H]1CN2c3c(c(=O)n(C)c4ccc(C#N)nc34)OC[C@@H]2CN1[C@@H](c1ccc(C(F)(F)F)cc1)C1CC1` [Compound 346], the concentration for a half-maximal effect (EC50) in the test with PBMC is 138 nM; with Jurkat cells, 91 nM.

Consider `CC[C@@H]1CN2c3c(c(=O)n(C)c4ccc(C#N)nc34)OC[C@@H]2CN1[C@@H](c1ccc(C(F)(F)F)cc1)C(C)C` [Compound 272], for which the EC50 was found to be 325 nM in the test with PBMC and 256 nM with Jurkat cells.

Consider `CC[C@@H]1CN2c3c(c(=O)n(C)c4ccc(C#N)nc34)OC[C@@H]2CN1[C@@H](CC)c1ncc(C(F)(F)F)cn1` [Compound 331], for which the 50% effective concentration (EC50) in the test with PBMC was found to be 16 nM; in the test on Jurkat cells, 14 nM.

Consider `CC[C@@H]1CN2c3c(c(=O)n(C)c4ccc(C#N)nc34)OC[C@@H]2CN1[C@H](CC)c1ccc(C)cc1` (stereo in doubt) [Compound 344], for which the concentration giving a half-maximal response (EC50) in the test with PBMC came out at 53 nM; in the test with Jurkat cells, 96 nM.

Regarding `C[C@@H]1CN2c3c(c(=O)n(C)c4ccc(C#N)nc34)OC[C@@H]2CN1[C@H](C)c1ccc(F)c(Cl)c1` (stereo in doubt) [Compound 259], the EC50 with PBMC worked out at 1880 nM; in the test on Jurkat cells, 624 nM.

With `CC[C@@H]1CN2c3c(c(=O)n(C)c4ccc(C#N)nc34)OC[C@@H]2CN1[C@@H](CC)c1ccc(C#N)cc1` (stereo in doubt) [Compound 161], the concentration for a half-maximal effect (EC50) in the test with PBMC was found to be 53 nM; with Jurkat cells, 26 nM.

As for `Cn1c(=O)nc(N2CCC[C@]3(CC2)CC(c2ccc(OC(F)(F)F)cc2)=NO3)c2nc(C#N)ccc21` (stereo in doubt) [Compound 139], the EC50 in the test on PBMC was 869 nM; in the test on Jurkat cells, 251 nM.

As for `CC[C@@H]1CN2c3c(c(=O)n(C)c4ccc(C#N)nc34)OC[C@@H]2CN1[C@@H](CC)c1c(F)ccc(F)c1F` (stereo in doubt) [Compound 170], the concentration giving a half-maximal response (EC50) is 186 nM with PBMC and 246 nM with Jurkat cells.

Consider `CC[C@H]1CN([C@H](CC)c2ccc(F)c(F)c2)[C@H](CC)CN1c1nc2nncn2c2ccc(C#N)nc12` (stereo in doubt) [Compound 201], for which the EC50 with PBMC was determined as 520 nM; with Jurkat cells, 822 nM.

With `CC[C@@H]1CN2c3c(c(=O)n(C)c4ccc(C#N)nc34)OC[C@@H]2CN1[C@H](CC)c1ccc(C(F)(F)F)c(Cl)c1` (stereo in doubt) [Compound 245], the EC50 in the test on PBMC was found to be 314 nM; in the test on Jurkat cells it was 189 nM.

`CC[C@H]1CN([C@H](c2ccc(C(F)(F)F)cc2)C(C)C)[C@H](CC)CN1c1nc2nncn2c2ccc(C#N)nc12` (stereo in doubt) [Compound 204]: the EC50 with PBMC amounted to 107 nM; in the test on Jurkat cells, 202 nM.

In the case of `CC[C@@H]1CN2c3c(c(=O)n(C)c4ccc(C#N)nc34)OC[C@@H]2CN1[C@H](CO)c1ccc(C(F)(F)F)cc1` (stereo in doubt) [Compound 236], the concentration for a half-maximal effect (EC50) in the test with PBMC turned out to be 583 nM; in the test on Jurkat cells, 98 nM.

For the molecule `CCC(c1ccc(F)c(F)c1)N1C[C@H]2COc3c(c4nc(C#N)ccc4n(C)c3=O)N2C[C@H]1CC` (single isomer, unassigned) [Compound 183], the figures for the half-maximal effective concentration (EC50) in the test with PBMC and in the test with Jurkat cells were 156 nM and 77 nM, respectively.

For `C[C@@H]1CN2c3c(c(=O)n(C)c4ccc(C#N)nc34)OC[C@@H]2CN1[C@@H](C)c1ccc(Cl)cc1` (stereo in doubt) [Compound 271], the EC50 was 57 nM in the test on PBMC and 79 nM in the test on Jurkat cells.

Turning to `CC[C@@H]1CN2c3c(c(=O)n(C)c4ccc(C#N)nc34)OC[C@@H]2CN1[C@@H](CC)c1ccc(C(F)(F)F)cc1C` (stereo in doubt) [Compound 233], the EC50 in the test on PBMC was found to be 361 nM; in the test on Jurkat cells, 287 nM.

On to `CC[C@@H]1CN2c3c(c(=O)n(C)c4ccc(C#N)nc34)OC[C@@H]2CN1[C@@H](CC)c1ccc(OC)cc1F` (stereo in doubt) [Compound 232], for which the values for the EC50 in the test with PBMC and with Jurkat cells were 19 nM and 47 nM, respectively.

`CC[C@H]1CN2[C@@H](COC[C@@H]2c2ccc(C(F)(F)F)cc2)CN1c1nc(=O)n(C)c2ccc(C#N)nc12` [Compound 193]: the concentration giving a half-maximal response (EC50) in the test with PBMC came to 1310 nM; in the test on Jurkat cells it was 1620 nM.

For the molecule `CC[C@H](c1ccc(Cl)c(Cl)c1)N1C[C@H]2COc3c(c4nc(C#N)ccc4n(C)c3=O)N2C[C@H]1C` (stereo in doubt) [Compound 321], the EC50 is 540 nM with PBMC and 223 nM in the test with Jurkat cells.

As for `CC[C@@H]1CN2c3c(c(=O)n(C)c4ccc(C#N)nc34)OC[C@@H]2CN1[C@@H](CC)c1cccc(C(F)(F)F)c1` (stereo in doubt) [Compound 149], the EC50 in the test with PBMC was determined as 162 nM; with Jurkat cells, 76 nM.

Regarding `C[C@@H]1CN2c3c(c(=O)n(C)c4ccc(C#N)nc34)OC[C@@H]2CN1[C@@H](C)c1ccc(F)c(Cl)c1` (stereo in doubt) [Compound 260], the EC50 with PBMC was 89 nM; in the test on Jurkat cells, 69 nM.

As to `CC[C@H]1CN([C@H](CC)c2c(Cl)cccc2Cl)[C@H](CC)CN1c1nc2nncn2c2ccc(C#N)nc12` (stereo in doubt) [Compound 209], the values for the EC50 in the test on PBMC and in the test with Jurkat cells were 1380 nM and 1010 nM, respectively.

In the case of `CC[C@@H]1CN2c3c(c(=O)n(C)c4ccc(C#N)nc34)OC[C@@H]2CN1[C@@H](CC)c1ccc(C(F)(F)F)cc1F` (stereo in doubt) [Compound 144], the EC50 is 61 nM in the test on PBMC and 76 nM in the test with Jurkat cells.

As for `CC[C@@H]1CN2c3c(c(=O)n(C)c4ccc(C#N)nc34)OC[C@@H]2CN1[C@@H](CC)c1ccc(OC(F)(F)F)cc1` (stereo in doubt) [Compound 212], the concentration giving a half-maximal response (EC50) with PBMC is 39 nM; in the test on Jurkat cells it was 11 nM.

For `CC[C@@H](c1ccc(Cl)c(F)c1)N1C[C@H]2COc3c(c4nc(C#N)ccc4n(C)c3=O)N2C[C@H]1C` (stereo in doubt) [Compound 281], the EC50 in the test on PBMC is 49 nM; in the test with Jurkat cells, 118 nM.

On to `CC[C@@H]1CN2c3c(c(=O)n(C)c4ccc(C#N)nc34)OC[C@@H]2CN1[C@@H](CC)c1ccc(Cl)cc1F` (stereo in doubt) [Compound 295], for which the concentration for a half-maximal effect (EC50) with PBMC was 10 nM; with Jurkat cells it was 8 nM.

As to `CCC[C@@H](c1ccc(Cl)cc1)N1C[C@H]2COc3c(c4nc(C#N)ccc4n(C)c3=O)N2C[C@H]1CC` (stereo in doubt) [Compound 311], the results for the EC50 in the test on PBMC and in the test with Jurkat cells were 1 nM and 54 nM, respectively.

For the molecule `CC[C@@H]1CN2c3c(c(=O)n(C)c4ccc(C#N)nc34)OC[C@@H]2CN1[C@@H](CC)c1c(Cl)cccc1Cl` (stereo in doubt) [Compound 240], the EC50 in the test on PBMC amounted to 109 nM; in the test on Jurkat cells, 242 nM.

Take `C[C@@H]1CN2c3c(c(=O)n(C)c4ccc(C#N)nc34)OC[C@@H]2CN1[C@@H](C)c1ccc(Cl)c(Cl)c1` (stereo in doubt) [Compound 257]: the results for the 50% effective concentration (EC50) with PBMC and in the test with Jurkat cells were 119 nM and 132 nM, respectively.

In the case of `CC[C@@H]1CN2c3c(c(=O)n(C)c4ccc(C#N)nc34)OC[C@@H]2CN1Cc1ccc(C(F)(F)F)cc1` [Compound 265], the figures for the EC50 in the test on PBMC and in the test on Jurkat cells were 152 nM and 165 nM, respectively.

For `CC[C@@H]1CN2c3c(c(=O)n(C)c4ccc(C#N)nc34)N(C)C[C@@H]2CN1[C@@H](CC)c1ccc(C(F)(F)F)cc1` [Compound 221], the EC50 in the test with PBMC came out at 624 nM; in the test with Jurkat cells, 503 nM.

One may read the EC50 as the concentration at which the effect is half-maximal. Read a low EC50 as a more potent agent.
